Assay results taken from PMC12610721, “The Action of Cannabidiol on Doxycycline Cytotoxicity in Human Cells—In Vitro Study” (Molecules, 2025).
Values after ≈ are worked out from the molar mass of the structure shown. “Also recorded” adds a separate entry of the source. Where two headings read alike, the source gives them in different places.

What was measured:
[1] = system: HEK-293 cells; experiment: mitochondrial activity (MTT assay)
Method: (§1) This innovative study evaluated the effects of cannabidiol (Cannabis sativa L.) on doxycycline-induced toxicity using three cell cultures: neural—SH-SY5Y, liver—HepG2, and kidney—HEK-293. […] A series of cytotoxicity assays included assessments of mitochondrial activity, lysosomal activity, cell membrane integrity, DNA synthesis, and cell proliferation. Based on the obtained results, IC50 values for doxycycline, both in monotherapy and in combination with CBD, were calculated, along with evaluations of ROS, death of cells, and morphology. The interaction between the drug and CBD was further analyzed by the combination index (CI).
(§2) The metabolic activity of viable cells was assessed by measuring dehydrogenase activity. After exposing the cell cultures to the test compounds, 10 µL of MTT solution (5 mg/mL in PBS) was added to each well of a 96-well plate. After 3 h of incubation, the MTT solution was removed, and the intracellular formazan was dissolved in 100 µL of DMSO. The plate was shaken for 15 min at room temperature and transferred to a Synergy 2 Multi-Mode Microplate Reader (BioTek® Instruments Inc., Winooski, VT, USA) to measure absorbance at 570 nm, using a blank as reference. Cytotoxicity was expressed as a percentage relative to the negative control.
(§3) To determine the types of interaction that occur when cells are exposed to combinations of DOX and CBD, the method established by Chou and Talalay was used in this study. The dose–effect relationships of the individual and combined test compounds were modeled biometrically using the Median-Effect Equation based on the Mass Action Law.fa/fu = (D/Dm)^m
(§4) In this isobolographic analysis, the combination index (CI) is a quantitative parameter used to evaluate the type and strength of interactions between multiple compounds. For all combinations, CI values were calculated across a range of affected fractions (Fa) from 0.05 to 0.95 (corresponding to 5–95% toxicity). CI values of 0.9–1.1, <0.9, and >1.1 indicate additive, synergistic, and antagonistic effects, respectively.
(§5) The study was conducted in three independent experiments (n = 3). […] Cytotoxicity data were analyzed using one-way analysis of variance (ANOVA), followed by Dunnett’s post hoc test to assess significance relative to the negative control. The half-maximal inhibitory concentration (IC50), representing the drug or drug–CBD mixture concentration required to inhibit cell viability by 50%, was calculated using GraphPad Prism 5.0. Statistical comparisons between IC50 values were performed using ANOVA followed by Tukey’s post hoc test. Differences were considered statistically significant at p ≤ 0.05.

[2] = system: HepG2 cells; experiment: mitochondrial activity (MTT assay)
Method: as §1, §2, §3, §4, §5

[3] = system: SH-SY5Y cells; experiment: mitochondrial activity (MTT assay); settings: 72 h
Method: as §1, §2, §3, §4, §5

[4] = system: HEK-293 cells; experiment: cell membrane integrity (LDH leakage assay)
Method: as §1
(§6) Cell membrane integrity was assessed by measuring lactate dehydrogenase (LDH) release, using a commercially available Cytotoxicity Detection Kit (LDH) (Roche Diagnostics, Warsaw, Poland). After incubation, 100 µL of culture medium (cell-free) from each well was transferred to the corresponding wells of an optically clear 96-well flat-bottom microplate, and 100 µL of reaction mixture was added to each well. The plate was then incubated for 30 min at room temperature in the dark. To stop the reaction, 50 µL of 1 M HCl was added to each well. Absorbance was measured at 492 nm using the Synergy 2 Multi-Mode Microplate Reader (BioTek® Instruments Inc., Winooski, VT, USA), with a blank as reference.
as §3, §4, §5

[5] = system: HepG2 cells; experiment: cell membrane integrity (LDH leakage assay)
Method: as §1, §6, §3, §4, §5

[6] = system: SH-SY5Y cells; experiment: cell membrane integrity (LDH leakage assay); settings: 72 h
Method: as §1, §6, §3, §4, §5

[7] = system: HEK-293 cells; experiment: apoptosis and necrosis (Hoechst 33342 + propidium iodide staining); assay type: cell-based, human; settings: HEK-293, 72 h
Method: (§8) The type and extent of cell death in the control and treated cultures were evaluated using fluorochrome staining with Hoechst 33342 and propidium iodide to assess apoptosis and necrosis [88]. Dead cells were analyzed morphologically using a fluorescence microscope (Axiovert 200 M, Zeiss, Oberkochen, Germany). Cells with pink, fluorescent nuclei were considered necrotic, whereas cells with blue, fluorescent nuclei (fragmented and/or condensed chromatin) were classified as apoptotic.

[8] = system: HEK-293 cells; experiment: cellular morphology (May–Grünwald–Giemsa staining); assay type: cell-based, human; settings: HEK-293, 72 h
Method: (§7) This method was used to illustrate changes in cell morphology under the influence of the tested compounds. The staining was performed on Lab-Tek plates (Nunc, NY, USA). Cells at a density of 1 × 10^5 cells/mL were used. After 72 h of incubation with or without the tested drugs (control), the culture medium was removed, and the cells were stained with 1 mL of May–Grünwald dye for 3 min at room temperature. Then, 1 mL of deionized water was added to each plate. After another 3 min of incubation at room temperature, the liquid was removed. All plates were rinsed with deionized water, and the cells were subsequently stained with Giemsa dye (dilution 1:20) for 30 min at room temperature. After staining, the dye was removed, the wells were rinsed with 1 mL of deionized water, and the plates were allowed to dry. Images were captured using a light microscope (Zeiss, Oberkochen, Germany).

[9] = system: HepG2 cells; experiment: cellular morphology (May–Grünwald–Giemsa staining); assay type: cell-based, human; settings: HepG2, 72 h
Method: as §7

[10] = system: SH-SY5Y cells; experiment: cellular morphology (May–Grünwald–Giemsa staining); assay type: cell-based, human; settings: 72 h
Method: as §7

[11] = system: HEK-293 cells; experiment: series of five cytotoxicity assays (MTT, NRU, TPC, LDH, BrdU), summary; assay type: cell-based; settings: Homo sapiens, HEK293, 72 h, read-out: IC50 values, range depending on the cellular parameter assessed
[12] = system: SH-SY5Y cells; settings: 72 h, Hoechst 33342/propidium iodide
Method: as §8

[13] = system: SH-SY5Y human neuroblastoma cells; design: method as in PMID 33429042; settings: 24 h, 4 ng/mL to 4.4 µg/mL; cited from earlier work
[14] = system: HepG2 cells; settings: 72 h exposure, cited from earlier work
[15] = system: human pluripotent stem cell-derived hepatocytes; settings: cited from earlier work
[16] = system: various human cell lines; settings: cited from earlier work

For `C[C@H]1c2cccc(O)c2C(=O)C2=C(O)[C@]3(O)C(=O)C(C(N)=O)=C(O)[C@@H](N(C)C)[C@@H]3[C@@H](O)[C@@H]21` [DOX, doxycycline hyclate], the “doxycycline concentration that inhibited mitochondrial activity” value ([1]; HEK-293, MTT, 72 h) was 6.25 µg/mL, the IC50 ([1]; Homo sapiens, HEK293, 72 h) was 17.4 ± 1 µg/mL and the “doxycycline concentration that impaired mitochondrial function” value ([2]; HepG2, MTT, 72 h) was 50 µg/mL. For the same compound, the IC50 ([2]; Homo sapiens, HepG2, 72 h) was > 200 µg/mL, the IC50 ([3]; Homo sapiens) was 9.8 ± 0.9 µg/mL and the “doxycycline concentration from which mitochondrial activity was inhibited” value ([3]; MTT, p ≤ 0.05 vs negative control) was 6.25 µg/mL. For the same compound, the “doxycycline concentration that caused degradation of the cell membrane” value ([4]; HEK-293, LDH, 72 h) was 6.25 µg/mL, the IC50 ([4]; Homo sapiens, HEK293, 72 h) was 30.4 ± 2.7 µg/mL and the “doxycycline concentration that disrupted membrane integrity” value ([5]; HepG2, LDH, 72 h) was 50 µg/mL. For the same compound, the IC50 ([5]; Homo sapiens, HepG2, 72 h) was > 200 µg/mL, the IC50 ([6]; Homo sapiens) was 149 ± 6.5 µg/mL and the “doxycycline concentration that induced cell membrane breakdown” value ([6]; LDH) was 12.5 µg/mL. The “apoptotic and necrotic cell fractions” value [7] was “increased apoptotic and necrotic cell fractions; also recorded: significant increase in apoptotic and necrotic cells”, the morphological changes [8] was “cell aggregation followed by detachment from the adhesive surface” and the morphological changes [9] was “cell aggregation followed by detachment from the adhesive surface”. The morphological changes [10] was “cell aggregation followed by detachment from the adhesive surface”, the IC50 [11] was 8.9 to 30.4 µg/mL (≈ 20 to 68.4 µM) and the “proportion of apoptotic and necrotic cells” value [12] was “increased the proportion of apoptotic and necrotic cells”. For the same compound, the “proportion of apoptotic and necrotic cells” value ([12]; listed as doxycycline) was “marked increase in apoptotic and necrotic cell populations”, the “effect on production of reactive oxygen species (ROS)” value [13] was “protective effect” and the “IC50 of mitochondrial inhibition” value ([14]; converted value in brackets) was 10.3 µg/mL. For the same compound, the IC50 ([14]; read-out: IC50 of mitochondrial inhibition) was 20 µM, the “effect on mitochondrial membrane” value [15] was “depolarized the mitochondrial membrane” and the “effect of extended incubation on human cell lines” value ([16]; 96 h, 0.1 to 10 µg/mL, increased lactate production and decreased oxygen consumption) was “cytotoxic effects”. The “concentration observed to inhibit proliferation and induce apoptotic cell death” value ([16]; tested human cell cultures) was 1000 ng/mL.
